Values joined by “and” are separate entries in the source; they are usually repeats but may differ in a detail not shown here. Equal entries are not always repeated. Results filed as inconclusive are left out. Starred links: 1 amine or outer side, 2 acyl side, 3 side chain; linkers in the order of their positions; H or OH if unused. Positions of bridges follow the written chain, without caps; N, C: chain ends. Non-standard residues stand in square brackets, D forms with d. Residues, ends and D or L forms follow the SMILES beside them. *: point of attachment. X1 = CC(C)C(C)C(C(=O)[*:2])N(C)[*:1]; Picolinoyl(3-OH) = O=C(c1ncccc1O)*; NMePhg = CN[CH](C(=O)O)c1ccccc1; Hyp = O=C(O)[CH]1C[CH](O)CN1; Sar = CNCC(=O)O
System: BDF1 mice, Friend leukemia sc, tumor weight T/C
Test: NCI In Vivo Anticancer Drug Screen. Data for tumor model Friend Virus Leukemia (Solid) (subcutaneous) in B6D2F1 (BDF1) mice
Conditions: endpoint: mean tumor weight, higher = larger tumour
Procedure: The antitumor activity of compounds was measured in mice bearing transplantable tumors. Survival or tumor size were measured and the results are expressed as the measurement made in the treated group (T) divided by the measurement made in the vehicle treated control group (C). The tumor model used in this assay is Friend Virus Leukemia (Solid) (subcutaneous) in B6D2F1 (BDF1) mice

[1] = dose: 6.0 mg/kg/injection, schedule: Q01DX011 (ip), vehicle: carboxymethylcellulose (CMC)
[2] = dose: 12.0 mg/kg/injection, schedule: Q01DX011 (ip), vehicle: carboxymethylcellulose (CMC)
[3] = dose: 25.0 mg/kg/injection, schedule: Q01DX011 (ip), vehicle: carboxymethylcellulose (CMC)
[4] = dose: 50.0 mg/kg/injection, schedule: Q01DX011 (ip), vehicle: carboxymethylcellulose (CMC)
[5] = dose: 100.0 mg/kg/injection, schedule: Q01DX011 (ip), vehicle: carboxymethylcellulose (CMC)
[6] = dose: 350.0 mg/kg/injection, schedule: Q01DX011 (ip), vehicle: carboxymethylcellulose (CMC)
[7] = dose: 500.0 mg/kg/injection, schedule: Q01DX011 (ip), vehicle: carboxymethylcellulose (CMC)
[8] = dose: 200.0 mg/kg/injection, schedule: Q01DX011 (ip), vehicle: carboxymethylcellulose (CMC)
[9] = dose: 125.0 mg/kg/injection, schedule: Q01DX011 (ip), vehicle: carboxymethylcellulose (CMC)
[10] = dose: 250.0 mg/kg/injection, schedule: Q01DX011 (ip), vehicle: carboxymethylcellulose (CMC)

## S=c1nc[nH]c2c1ncn2C1CCCO1 (centres undefined)
dose: 0.75 mg/kg/injection, schedule: Q01DX011 (ip), vehicle: carboxymethylcellulose (CMC)
  T/C: 79 % of control
dose: 1.5 mg/kg/injection, schedule: Q01DX011 (ip), vehicle: carboxymethylcellulose (CMC)
  T/C: 65 % of control
[1]
  T/C: 54 % of control and 35 % of control
[2]
  T/C: 27 % of control and 45 % of control
[3]
  T/C: 9 % of control and 10 % of control
[4]
  T/C: 2 % of control and 20 % of control
[5]
  T/C: 1 % of control and 3 % of control

## N=C(N)c1ccc(Nc2ccc(C(=N)N)cc2)cc1
dose: 5.0 mg/kg/injection, schedule: Q01DX011 (ip), vehicle: water
  T/C: 186 % of control
dose: 7.5 mg/kg/injection, schedule: Q01DX011 (ip), vehicle: water
  T/C: 164 % of control
dose: 10.0 mg/kg/injection, schedule: Q01DX011 (ip), vehicle: water
  T/C: 154 % of control
dose: 15.0 mg/kg/injection, schedule: Q01DX011 (ip), vehicle: water
  T/C: 180 % of control

## CC/C(=C(/CC)c1ccc(O)cc1)c1ccc(O)cc1
dose: 6.5 mg/kg/injection, schedule: Q01DX011 (sc), vehicle: steriod suspending solution
  T/C: 171 % of control and 244 % of control
dose: 13.0 mg/kg/injection, schedule: Q01DX011 (sc), vehicle: steriod suspending solution
  T/C: 169 % of control
dose: 26.0 mg/kg/injection, schedule: Q01DX011 (sc), vehicle: steriod suspending solution
  T/C: 119 % of control and 121 % of control
dose: 52.0 mg/kg/injection, schedule: Q01DX011 (sc), vehicle: steriod suspending solution
  T/C: 83 % of control

## Nc1nc(SCc2ccccc2Cl)c2[nH]cnc2n1
dose: 1.0 mg/kg/injection, schedule: Q01DX011 (ip), vehicle: carboxymethylcellulose (CMC)
  T/C: 88 % of control
dose: 3.0 mg/kg/injection, schedule: Q01DX011 (ip), vehicle: carboxymethylcellulose (CMC)
  T/C: 77 % of control
[1]
  T/C: 67 % of control
[2]
  T/C: 28 % of control
[3]
  T/C: 18 % of control
[4]
  T/C: 7 % of control
[5]
  T/C: 2 % of control

## Clc1ccc2c(Cl)ncnc2c1
dose: 19.0 mg/kg/injection, schedule: Q01DX011 (ip), vehicle: carboxymethylcellulose (CMC)
  T/C: 96 % of control
dose: 37.5 mg/kg/injection, schedule: Q01DX011 (ip), vehicle: carboxymethylcellulose (CMC)
  T/C: 59 % of control
dose: 75.0 mg/kg/injection, schedule: Q01DX011 (ip), vehicle: carboxymethylcellulose (CMC)
  T/C: 31 % of control

## CCNc1nncs1
dose: 8.62 mg/kg/injection, schedule: Q01DX011 (ip), vehicle: carboxymethylcellulose (CMC)
  T/C: 122 % of control
dose: 17.25 mg/kg/injection, schedule: Q01DX011 (ip), vehicle: carboxymethylcellulose (CMC)
  T/C: 107 % of control
dose: 34.5 mg/kg/injection, schedule: Q01DX011 (ip), vehicle: carboxymethylcellulose (CMC)
  T/C: 193 % of control
dose: 69.0 mg/kg/injection, schedule: Q01DX011 (ip), vehicle: carboxymethylcellulose (CMC)
  T/C: 112 % of control

## CCC(c1ccc(O)cc1)C(CC)c1ccc(OC)cc1 (centres undefined)
dose: 0.5 mg/kg/injection, schedule: Q01DX011 (sc), vehicle: steriod suspending solution
  T/C: 86 % of control
dose: 1.0 mg/kg/injection, schedule: Q01DX011 (sc), vehicle: steriod suspending solution
  T/C: 73 % of control
dose: 3.0 mg/kg/injection, schedule: Q01DX011 (sc), vehicle: steriod suspending solution
  T/C: 60 % of control and 72 % of control
dose: 6.0 mg/kg/injection, schedule: Q01DX011 (sc), vehicle: steriod suspending solution
  T/C: 61 % of control and 73 % of control
dose: 12.0 mg/kg/injection, schedule: Q01DX011 (sc), vehicle: steriod suspending solution
  T/C: 43 % of control
dose: 25.0 mg/kg/injection, schedule: Q01DX011 (sc), vehicle: steriod suspending solution
  T/C: 54 % of control and 48 % of control
dose: 50.0 mg/kg/injection, schedule: Q01DX011 (sc), vehicle: steriod suspending solution
  T/C: 38 % of control
dose: 100.0 mg/kg/injection, schedule: Q01DX011 (sc), vehicle: steriod suspending solution
  T/C: 43 % of control
dose: 200.0 mg/kg/injection, schedule: Q01DX011 (sc), vehicle: steriod suspending solution
  T/C: 36 % of control

## O=C1C(NC(=O)C2CCCCC2)=C(N2CC2)C(=O)C(NC(=O)C2CCCCC2)=C1N1CC1
dose: 22.0 mg/kg/injection, schedule: Q01DX011 (ip), vehicle: carboxymethylcellulose (CMC)
  T/C: 106 % of control
dose: 43.0 mg/kg/injection, schedule: Q01DX011 (ip), vehicle: carboxymethylcellulose (CMC)
  T/C: 82 % of control
dose: 87.0 mg/kg/injection, schedule: Q01DX011 (ip), vehicle: carboxymethylcellulose (CMC)
  T/C: 62 % of control
[6]
  T/C: 61 % of control

## CC(C)=CC1C(C(=O)OCc2ccc(C)cc2C)C1(C)C (centres undefined)
dose: 87.5 mg/kg/injection, schedule: Q01DX011 (ip), vehicle: carboxymethylcellulose (CMC)
  T/C: 107 % of control
dose: 175.0 mg/kg/injection, schedule: Q01DX011 (ip), vehicle: carboxymethylcellulose (CMC)
  T/C: 83 % of control
[6]
  T/C: 53 % of control
[7]
  T/C: 46 % of control

## O=CN(O)CC(=O)O
dose: 125.0 mg/kg/injection, schedule: Q01DX011 (ip), vehicle: saline
  T/C: 154 % of control
dose: 250.0 mg/kg/injection, schedule: Q01DX011 (ip), vehicle: saline
  T/C: 196 % of control
dose: 375.0 mg/kg/injection, schedule: Q01DX011 (ip), vehicle: saline
  T/C: 193 % of control

## CC(=O)Nc1ccc(NC(=O)c2ccc([As](O)O)cc2)cc1
dose: 30.0 mg/kg/injection, schedule: Q01DX011 (ip), vehicle: carboxymethylcellulose (CMC)
  T/C: 111 % of control
dose: 60.0 mg/kg/injection, schedule: Q01DX011 (ip), vehicle: carboxymethylcellulose (CMC)
  T/C: 109 % of control
dose: 120.0 mg/kg/injection, schedule: Q01DX011 (ip), vehicle: carboxymethylcellulose (CMC)
  T/C: 101 % of control

## COc1ccc2c3c1OC1C(O)C=CC4C(C2)N(C)CCC341 (centres undefined)
dose: 37.5 mg/kg/injection, schedule: Q01DX011 (ip), vehicle: saline
  T/C: 93 % of control
dose: 50.0 mg/kg/injection, schedule: Q01DX011 (ip), vehicle: saline
  T/C: 119 % of control
dose: 75.0 mg/kg/injection, schedule: Q01DX011 (ip), vehicle: saline
  T/C: 108 % of control

## CC(C)CC1NC(=O)C(NC(=O)c2ncccc2O)C(C)OC(=O)C(c2ccccc2)N(C)C(=O)C(C)NC(=O)C(C(C)C(C)C)N(C)C(=O)CN(C)C(=O)C2CC(O)CN2C1=O (centres undefined) ({Picolinoyl(3-OH)}-TL[Hyp][Sar][X1]A[NMePhg]; ester 1-C; configuration not given here)
[3]
  T/C: 57 % of control
[4]
  T/C: 49 % of control
[5]
  T/C: 64 % of control
[8]
  T/C: 39 % of control

## CCCCCCCCCCCC[n+]1c(C)cc(N)c2ccccc21
dose: 0.1 mg/kg/injection, schedule: Q01DX011 (ip), vehicle: carboxymethylcellulose (CMC)
  T/C: 182 % of control

## CCCCCCCCCC(C)(O)C#CC(C)(O)CCCCCCCCC (centres undefined)
[2]
  T/C: 81 % of control
[3]
  T/C: 82 % of control
[4]
  T/C: 58 % of control and 59 % of control
[5]
  T/C: 55 % of control
[8]
  T/C: 34 % of control

## C[C@]12CCC(=O)C=C1CC[C@@H]1[C@@H]2[C@@H](O)C[C@@]2(C)[C@H]1CC[C@]2(O)C(=O)COC(=O)CCC(=O)O
dose: 75.0 mg/kg/injection, schedule: Q01DX011 (sc), vehicle: steriod suspending solution
  T/C: 52 % of control
dose: 150.0 mg/kg/injection, schedule: Q01DX011 (sc), vehicle: steriod suspending solution
  T/C: 49 % of control
dose: 300.0 mg/kg/injection, schedule: Q01DX011 (sc), vehicle: steriod suspending solution
  T/C: 27 % of control

## CO/[N+]([O-])=C\C(=O)N/C=C/C(=O)O
dose: 1.25 mg/kg/injection, schedule: Q01DX011 (ip), vehicle: carboxymethylcellulose (CMC)
  T/C: 103 % of control
dose: 2.5 mg/kg/injection, schedule: Q01DX011 (ip), vehicle: carboxymethylcellulose (CMC)
  T/C: 105 % of control
dose: 10.0 mg/kg/injection, schedule: Q01DX011 (ip), vehicle: carboxymethylcellulose (CMC)
  T/C: 61 % of control
dose: 15.0 mg/kg/injection, schedule: Q01DX011 (ip), vehicle: carboxymethylcellulose (CMC)
  T/C: 53 % of control
[3]
  T/C: 52 % of control

## O=C(O)C(=O)c1ccc(-c2ccccc2)cc1
dose: 62.0 mg/kg/injection, schedule: Q01DX011 (ip), vehicle: carboxymethylcellulose (CMC)
  T/C: 67 % of control
[9]
  T/C: 45 % of control

## C[C@]12C=CC(=O)C=C1CC[C@@H]1[C@@H]2CC[C@]2(C)OC(=O)CC[C@@H]12
dose: 250.0 mg/kg/injection, schedule: Q01DX011 (sc), vehicle: steriod suspending solution
  T/C: 115 % of control
dose: 500.0 mg/kg/injection, schedule: Q01DX011 (sc), vehicle: steriod suspending solution
  T/C: 120 % of control
dose: 1000.0 mg/kg/injection, schedule: Q01DX011 (sc), vehicle: steriod suspending solution
  T/C: 112 % of control

## O=c1[nH]c(=O)n(C2CC(O)C(CO)O2)cc1Br (centres undefined)
[9]
  T/C: 72 % of control
[10]
  T/C: 52 % of control

## CC(C)CCS(=O)(=O)OCCCCOS(=O)(=O)CCC(C)C
dose: 62.5 mg/kg/injection, schedule: Q01DX011 (ip), vehicle: carboxymethylcellulose (CMC)
  T/C: 98 % of control
[9]
  T/C: 97 % of control
[10]
  T/C: 73 % of control
[7]
  T/C: 39 % of control

From PubChem BioAssay AID228 (DTP/NCI, 2004)
